Each block holds one compound with its values, some of them ahead of it.
Key:
[1] = Bioavailability was evaluated in rats at a dose of 20 mg/kg, under fasting state; type: ADME, organism-based; conditions: rat, in vivo
[2] = Bioavailability was evaluated in rats at a dose of 20 mg/kg, under fed state; type: ADME, organism-based; conditions: rat, in vivo
[3] = (§1) Cmax value was evaluated in rats at a dose of 20 mg/kg; type: ADME, organism-based; design: dose 20 mg/kg; conditions: rat, in vivo
Rattus norvegicus = test: as §1; type: ADME, organism-based; design: dose 20 mg/kg; conditions: in vivo
[4] = biological target: Human immunodeficiency virus type 1 protease (Human immunodeficiency virus 1, UniProt Q72874); test: Inhibitory concentration required against HIV-1 protease
CEM-SS [5] = test: (§2) Inhibitory concentration required for antiviral activity against HXB-2 infected CEM-SS cells; type: functional, cell-based; conditions: Homo sapiens
CEM-SS [6] = test: as §2; type: functional; conditions: Homo sapiens

SMILES: CS(=O)(=O)O.Cc1c(O)cccc1C(=O)N[C@@H](CSc1ccccc1)[C@H](O)CN1C[C@H]2CCS[C@H]2C[C@H]1C(=O)NC(C)(C)C
bioavailability [1]: 22%
bioavailability [2]: 19%
Cmax [3]: 1400 nM
Cmax (Rattus norvegicus): 1000 nM

SMILES: Cc1c(O)cccc1C(=O)N[C@@H](CSc1ccccc1)[C@H](O)CN1C[C@H]2CCS[C@H]2C[C@H]1C(=O)NC(C)(C)C
IC50 [4]: 0.0003 µM
IC50 (CEM-SS [5]): 0.0051 µM
IC95 (CEM-SS [6]): 0.018 µM

SMILES: Cc1c(O)cccc1C(=O)N[C@@H](Cc1ccccc1)[C@H](O)CN1C[C@H]2CCCC[C@H]2C[C@H]1C(=O)NC(C)(C)C
IC50 [4]: 0.013 µM
IC50 (CEM-SS [5]): 0.033 µM
IC95 (CEM-SS [6]): 0.135 µM

SMILES: Cc1c(O)cccc1C(=O)N[C@@H](Cc1ccccc1)[C@H](O)CN1C[C@H]2CCS[C@H]2C[C@H]1C(=O)NC(C)(C)C
IC50 [4]: 0.0005 µM
IC50 (CEM-SS [5]): 0.024 µM
IC95 (CEM-SS [6]): 1.36 µM

SMILES: CC(C)(C)NC(=O)[C@@H]1C[C@@H]2SCC[C@@H]2CN1C[C@@H](O)[C@H](Cc1ccccc1)NC(=O)OCc1ccccc1
IC50 [4]: 0.0066 µM

SMILES: CC(C)(C)NC(=O)[C@@H]1C[C@@H]2CCCC[C@@H]2CN1C[C@@H](O)[C@H](Cc1ccccc1)NC(=O)OCc1ccccc1
IC50 [4]: 0.127 µM

IC50 (CEM-SS [5]): 0.0066 µM
SMILES: CC(C)(C)NC(=O)[C@@H]1C[C@@H]2CCCC[C@@H]2CN1C[C@@H](O)[C@H](Cc1ccccc1)NC(=O)[C@H](CC(N)=O)NC(=O)c1ccc2ccccc2n1
IC95 (CEM-SS [6]): 0.021 µM

From ChEMBL document CHEMBL1128091, “Ly316340: A potent HIV-1 protease inhibitor containing a high affinity octahydrothienopyridine hydroxyethylamine isostere” (Bioorg Med Chem Lett, 1995)
